How the values were obtained:
[1] = In vitro metabolic stability in mouse liver microsomes
[2] = test system: panel of 50 representative kinases; experiment: Kinase selectivity panel; format: biochemical; settings: at 10,000 nM
[3] = test system: 13 other methyltransferases; format: biochemical; settings: read-out: IC50 against 13 other methyltransferases
MDA-MB-231 cells [4] = experiment: Clonogenicity assay; format: cell-based; settings: 2 weeks, 0.5 or 1 µM
[5] = test system: 44 GPCRs, transporters, and ion channels; format: binding
[6] = Resazurin cell toxicity assay; format: cell-based; settings: human, U2OS cells
[7] = Resazurin cell toxicity assay; format: cell-based; settings: human, PANC-1 cells, Cell Toxicity EC50, PANC-1 cells
G9a [8] = biological target: T1, G9a (Homo sapiens, UniProt Q96KQ7); settings: Km app of peptide versus inhibitor concentration
T1 sequence (Q96KQ7 1-1210): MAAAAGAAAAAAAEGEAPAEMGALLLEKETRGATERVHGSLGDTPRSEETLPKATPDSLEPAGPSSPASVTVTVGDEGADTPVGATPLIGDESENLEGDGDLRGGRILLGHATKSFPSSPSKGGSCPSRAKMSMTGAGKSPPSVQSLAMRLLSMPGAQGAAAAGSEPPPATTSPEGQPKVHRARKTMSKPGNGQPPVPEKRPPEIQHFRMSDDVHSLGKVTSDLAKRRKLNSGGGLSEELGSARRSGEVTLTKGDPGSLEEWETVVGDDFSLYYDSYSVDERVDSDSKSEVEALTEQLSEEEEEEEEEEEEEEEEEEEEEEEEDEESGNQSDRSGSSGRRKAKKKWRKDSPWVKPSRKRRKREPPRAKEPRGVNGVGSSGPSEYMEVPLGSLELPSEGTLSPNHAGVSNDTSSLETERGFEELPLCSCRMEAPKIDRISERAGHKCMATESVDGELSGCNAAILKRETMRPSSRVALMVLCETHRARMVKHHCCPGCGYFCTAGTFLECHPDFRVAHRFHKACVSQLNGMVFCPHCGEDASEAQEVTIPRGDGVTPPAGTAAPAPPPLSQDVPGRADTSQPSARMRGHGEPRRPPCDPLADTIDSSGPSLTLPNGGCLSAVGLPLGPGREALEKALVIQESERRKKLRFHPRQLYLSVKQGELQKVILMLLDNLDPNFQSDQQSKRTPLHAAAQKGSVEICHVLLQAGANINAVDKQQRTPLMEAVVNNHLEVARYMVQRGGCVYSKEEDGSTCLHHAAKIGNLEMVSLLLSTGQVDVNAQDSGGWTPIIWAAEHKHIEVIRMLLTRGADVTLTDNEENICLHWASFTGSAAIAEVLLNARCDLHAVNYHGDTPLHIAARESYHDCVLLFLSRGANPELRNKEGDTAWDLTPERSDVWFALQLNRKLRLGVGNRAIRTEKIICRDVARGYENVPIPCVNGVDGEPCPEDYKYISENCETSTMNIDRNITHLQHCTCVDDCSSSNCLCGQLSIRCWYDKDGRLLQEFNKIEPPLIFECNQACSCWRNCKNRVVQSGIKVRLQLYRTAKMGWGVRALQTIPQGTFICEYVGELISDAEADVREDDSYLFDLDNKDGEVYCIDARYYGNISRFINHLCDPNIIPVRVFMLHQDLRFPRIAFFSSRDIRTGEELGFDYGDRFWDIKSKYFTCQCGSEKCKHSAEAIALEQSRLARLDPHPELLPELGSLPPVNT

G9a [9] = biological target: T1, G9a; experiment: Competition of inhibitor with cofactor SAM; format: biochemical; settings: Km app of SAM versus inhibitor concentration
PRC2 – EZH2 = PRC2 – EZH2 (Homo sapiens, UniProt Q15910); experiment: biochemical
Sequence of PRC2 – EZH2 (Q15910 whole entry): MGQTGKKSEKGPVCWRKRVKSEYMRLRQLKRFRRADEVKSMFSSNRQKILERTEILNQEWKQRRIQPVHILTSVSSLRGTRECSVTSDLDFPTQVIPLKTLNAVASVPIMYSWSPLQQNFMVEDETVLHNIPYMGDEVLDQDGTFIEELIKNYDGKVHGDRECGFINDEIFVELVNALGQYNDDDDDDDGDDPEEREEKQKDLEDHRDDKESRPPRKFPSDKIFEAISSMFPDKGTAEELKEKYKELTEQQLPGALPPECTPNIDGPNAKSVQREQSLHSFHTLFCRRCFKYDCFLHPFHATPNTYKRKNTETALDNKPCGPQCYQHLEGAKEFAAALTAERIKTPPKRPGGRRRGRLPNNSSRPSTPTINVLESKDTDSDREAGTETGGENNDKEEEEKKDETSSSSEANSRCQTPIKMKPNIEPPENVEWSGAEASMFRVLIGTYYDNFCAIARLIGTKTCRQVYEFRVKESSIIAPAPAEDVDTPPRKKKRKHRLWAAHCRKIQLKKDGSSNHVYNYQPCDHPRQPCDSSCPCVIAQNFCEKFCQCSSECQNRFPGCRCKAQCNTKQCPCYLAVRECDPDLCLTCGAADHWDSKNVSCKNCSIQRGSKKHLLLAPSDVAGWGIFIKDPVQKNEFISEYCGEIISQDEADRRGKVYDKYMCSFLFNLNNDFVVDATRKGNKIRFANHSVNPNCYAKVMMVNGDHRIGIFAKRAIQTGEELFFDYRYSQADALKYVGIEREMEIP
Sequence of PRC2 – EZH2 (O75530 whole entry, further chain): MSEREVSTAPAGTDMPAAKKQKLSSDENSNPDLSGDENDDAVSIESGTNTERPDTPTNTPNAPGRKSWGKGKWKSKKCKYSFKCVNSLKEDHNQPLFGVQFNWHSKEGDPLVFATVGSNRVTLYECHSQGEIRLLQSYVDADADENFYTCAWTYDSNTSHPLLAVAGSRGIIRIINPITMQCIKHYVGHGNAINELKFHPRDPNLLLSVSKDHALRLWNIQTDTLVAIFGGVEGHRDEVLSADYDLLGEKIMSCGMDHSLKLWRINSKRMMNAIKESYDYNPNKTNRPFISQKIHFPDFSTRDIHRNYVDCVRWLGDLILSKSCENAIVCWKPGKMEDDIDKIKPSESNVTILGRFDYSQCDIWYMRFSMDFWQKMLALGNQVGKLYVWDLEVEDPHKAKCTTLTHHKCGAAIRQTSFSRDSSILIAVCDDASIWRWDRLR
Sequence of PRC2 – EZH2 (Q15022 whole entry, further chain): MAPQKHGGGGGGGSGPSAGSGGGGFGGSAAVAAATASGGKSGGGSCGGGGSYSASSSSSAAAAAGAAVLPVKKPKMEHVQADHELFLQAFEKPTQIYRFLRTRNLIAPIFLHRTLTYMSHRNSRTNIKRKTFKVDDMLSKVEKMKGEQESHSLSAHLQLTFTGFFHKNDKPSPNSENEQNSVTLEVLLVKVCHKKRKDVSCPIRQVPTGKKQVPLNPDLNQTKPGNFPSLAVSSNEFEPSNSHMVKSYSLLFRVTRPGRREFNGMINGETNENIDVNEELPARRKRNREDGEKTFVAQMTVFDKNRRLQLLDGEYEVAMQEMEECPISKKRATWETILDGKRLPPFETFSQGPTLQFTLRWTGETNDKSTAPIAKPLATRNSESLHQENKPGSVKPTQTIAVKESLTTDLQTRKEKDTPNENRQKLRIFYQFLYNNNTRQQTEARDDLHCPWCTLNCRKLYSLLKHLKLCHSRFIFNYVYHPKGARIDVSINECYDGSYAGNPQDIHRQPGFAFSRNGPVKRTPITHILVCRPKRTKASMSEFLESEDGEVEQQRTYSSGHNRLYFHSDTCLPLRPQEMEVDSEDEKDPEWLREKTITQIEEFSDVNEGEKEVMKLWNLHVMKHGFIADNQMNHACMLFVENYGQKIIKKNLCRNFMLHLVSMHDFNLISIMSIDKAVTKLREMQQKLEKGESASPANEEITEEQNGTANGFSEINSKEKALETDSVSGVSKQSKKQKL

PANC-1 cells = experiment: Clonogenicity assay; format: cell-based; settings: 2 weeks, 0.5 or 1 µM
Resazurin = settings: human
MDA-MB-231 cells [10] = experiment: Resazurin; settings: MDA-MB-231 cells

With `COc1cc2c(NC3CCN(C(C)C)CC3)nc(C3CCCCC3)nc2cc1OCCCN1CCCC1` [Compound 5, reference compound] as the compound, how does the CLint [1] read?
Its CLint is 1.0 mL/min/g liver.

With `COc1cc2c(NC3CCN(C(C)C)CC3)nc(N3CCC(F)(F)CC3)nc2cc1OCCCN1CCCC1` [Compound 7, 2-(4,4-Difluoropiperidin-1-yl)-N-(1-isopropylpiperidin-4-yl)-6-methoxy-7-(3-(pyrrolidin-1-yl)propoxy)quinazolin-4-amine] as the compound, how does the “Inhibition of panel of 50 representative kinases” value [2] read?
Its value is “less than 20%”.

What about the IC50 [3] of the same compound?
Its IC50 is over 50 µM.

And the CLint [1]?
The CLint was 0.5 mL/min/g liver.

And the Effect on clonogenicity (MDA-MB-231 cells [4])?
Its Effect on clonogenicity is “no effect on clonogenicity”.

And the “Inhibition against 5 targets of the 44-target panel” value [5]?
Its value is over 50%.

What about the “Inhibition against 39 targets of the 44-target panel” value [5] of the same compound?
Its value is “less than 50%”.

And the EC50 at 48 h [6]?
The EC50 at 48 h was over 3 µM.

What about the EC50 at 48 h [7] of the same compound?
The EC50 at 48 h was over 3 µM.

And the “Mechanism of action versus peptide substrate” value (G9a [8])?
The value was “competitive with the peptide substrate”.

What about the “Mechanism of action versus cofactor SAM” value (G9a [9]) of the same compound?
The value was “non-competitive with the cofactor SAM”.

And the IC50 (PRC2 – EZH2)?
The IC50 was over 5 µM.

And the Effect on clonogenicity (PANC-1 cells)?
The Effect on clonogenicity was “reduced clonogenicity in PANC-1 cells in a concentration-dependent manner”.

With `COc1cc2c(NC3CCN(C(C)C)CC3)nc(N3CCOCC3)nc2cc1OCCCN1CCCC1` [Compound 13, N-(1-Isopropylpiperidin-4-yl)-6-methoxy-2-morpholino-7-(3-(pyrrolidin-1-yl)propoxy)quinazolin-4-amine] as the compound, how does the CLint [1] read?
Its CLint is 0.7 mL/min/g liver.

Which CLint [1] does the source give for `COc1cc2c(NC3CCN(C(C)C)CC3)nc(N3CC(F)(F)C(F)(F)C3)nc2cc1OCCCN1CCCC1` [Compound 15, N-(1-Isopropylpiperidin-4-yl)-6-methoxy-7-(3-(pyrrolidin-1-yl)propoxy)-2-(3,3,4,4-tetrafluoropyrrolidin-1-yl)quinazolin-4-amine] here?
The CLint was under 0.5 mL/min/g liver.

With `COc1cc2c(NC3CCN(C(C)C)CC3)nc(N3CCCCC3)nc2cc1OCCCN1CCCC1` [Compound 16] as the compound, how does the EC50 at 48 h (Resazurin) read?
Its EC50 at 48 h is 7 µM.

With `COc1cc2c(NC3CCN(C(C)C)CC3)nc(N3CCCCCC3)nc2cc1OCCCN1CCCC1` [Compound 17] as the compound, how does the EC50 (MDA-MB-231 cells [10]; read-out: Cell Toxicity EC50, 48 h) read?
Its EC50 is 5.7 µM.

Which EC50 at 48 h (Resazurin) does the source give for `COc1cc2c(NC3CCN(C4CC4)CC3)nc(N3CCS(=O)(=O)CC3)nc2cc1OCCCN1CCCC1` [Compound 19, 4-(4-((1-Cyclopropylpiperidin-4-yl)amino)-6-methoxy-7-(3-(pyrrolidin-1-yl)propoxy)quinazolin-2-yl)thiomorpholine 1,1-dioxide] here?
The EC50 at 48 h was over 50 µM.

With `COc1cc2c(NC3CCN(C(C)C)CC3)nc(C3CCOCC3)nc2cc1OCCCN1CCCC1` [Compound 22, N-(1-Isopropylpiperidin-4-yl)-6-methoxy-7-(3-(pyrrolidin-1-yl)propoxy)-2-(tetrahydro-2H-pyran-4-yl)quinazolin-4-amine] as the compound, how does the CLint [1] read?
Its CLint is 4.7 mL/min/g liver.

What about the EC50 at 48 h (Resazurin) of the same compound?
Its EC50 at 48 h is over 50 µM.

And the “Tox/function Ratio” value (MDA-MB-231 cells [10]; toxicity EC50 divided by functional IC50)?
The value was over 130.

Source: paper PMC3880643 (Journal of medicinal chemistry, 2013)
